In PMC11722014, “FXR Activation Accelerates Early Phase of Osteoblast Differentiation Through COX-2-PGE2-EP4 Axis in BMP-2-Induced Mouse Mesenchymal Stem Cells” (Molecules, 2024):

Biological target: T1, Farnesoid X receptor (FXR) (Homo sapiens, UniProt Q96RI1)
T1 construct: gene NR1H4; FXR-LBD-Glutathione S-transferase fusion protein
T1 sequence (Q96RI1 262-486 limits assumed): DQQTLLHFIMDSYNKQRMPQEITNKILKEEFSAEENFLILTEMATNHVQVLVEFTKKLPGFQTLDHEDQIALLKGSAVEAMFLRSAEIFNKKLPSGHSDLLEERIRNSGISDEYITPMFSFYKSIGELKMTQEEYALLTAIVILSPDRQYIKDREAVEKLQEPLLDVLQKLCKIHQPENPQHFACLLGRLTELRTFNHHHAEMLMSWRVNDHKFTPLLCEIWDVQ
Assay: LanthaScreen TR-FRET FXR coactivator recruitment assay (partial agonist, […] of GW4064); also luciferase reporter assay
Type: binding

EC50: 630 ± 260 nM
SMILES: CC(C)(C)c1ccc(-n2c(C3CC3)nc3c(NC(=O)c4ccc(C(=O)O)cc4)cccc32)cc1 [FLG390]
